The source of these data is US20190343801A1, “COMPOSITIONS AND METHODS FOR CONTROLLING NATURAL KILLER CELL ACTIVATION AND FUNCTION” (BAR ILAN UNIVERSITY, priority 2017, published 2019).

One test has as its system smooth muscle. The settings on record: cited from earlier work.
In test [1] the test system is myosin superfamily members from classes I, V, and X. The following applies: cited from earlier work.
The subject of test [2] is F-actin retrograde flow in YTS and pNK F-tractin GFP cells. The test is described as follows: Live cell imaging and kymograph analysis of F-actin retrograde flow (ARF) in F-tractin GFP NK cells. In kind it is cell-based. The settings on record: 0.5 μM CytD, anti-CD28 or anti-KIR2DL1. The source says:
FIGS. […] In FIG. 5A, YTS F-tractin GFP cells were dropped over coverslips coated with anti-CD28 or anti-KIR1 antibodies, and imaged at 1 frame/sec through a single focal plane. […] Representative images are shown. Kymographs of F-actin dynamics were compiled along the contact site radius. […]
The y axis represents F-actin velocity (μm/sec), and the x axis—time from initial spreading (sec).
FIGS. 5E-5H. show analyses of NKIS area and ARF in the activating vs. inhibitory NKIS in the presence of Y-27632 (Y-27) inhibitor of myosin light chain (MLC) phosphorylation and/or JAS. […] NKIS area was determined using ImageJ. […]
Analyses of actin and SHP-1 dynamics were performed by preparing kymographs from live cell videos and tracing the movement of the fluorescently tagged proteins. […] Velocity over distance from the center was determined by calculating the velocity of the tracked protein based on the distance traversed to time between each two points on the trace, and noting the relative location from the center of the measured area. […] For each bin, average velocity and standard error were calculated. Average distance traversed over time was calculated by measuring the location of the trace, relative to its point of origin at each time point after the beginning of the trace. For each relative time point from the beginning of a trace, an average distance and standard error were calculated. […]

The subject of test [3] is SHP-1. The test can be described thus: PTP assay: SHP-1 catalytic activity (pNPP hydrolysis) after treatment of NK-target cell conjugates. In kind it is cell-based. The following applies: YTS-2DL1 + 221-Cw4, untreated 100%; 0.5 μM CytD. The protocol:
YTS-2DL1 cells were pretreated with 25 μM Y-27 or left untreated. Cells were incubated at 37° C. with target cells for 5 min, 1 μM of JAS was added, and samples were incubated for 5 minutes before lysis. IP of SHP-1 was performed, and precipitates were incubated with pNpp. SHP-1 activity was determined by measuring absorbance at 405 nm. The graph represents rates of SHP-1 catalytic activity from three independent experiments.
In FIG. 8E, YTS-2DL1 cells were incubated at 37° C. with 221-Cw4 or Cw7 cells for 5 min, treated with 0.5 μM of CytD or left untreated, and SHP-1 activity was determined as detailed in the Materials and Methods. Graph summarizing percent of relative SHP-1 catalytic activity obtained by four independent experiments. Data are means±SEM.
SHP-1 catalytic activity was determined by measuring the hydrolysis of the exogenous substrate p-Nitrophenyl Phosphate (pNPP) by SHP-1, as previously described. NK cells (2-5×10^6) were incubated with target cells at ratio of 1:1, activated as described above, and lysed with passive ice-cold lysis buffer (1% Brij, 1% n-Octyl-b-D-glucoside, 50 mM Tris-HCl, pH 7.4, 150 mM NaCl, 5 mM ethylenediaminetetraacetic acid, and complete protease inhibitor tablets). Cell lysates were subjected to IP with anti-SHP-1 antibody. […] Reactions were terminated by adding 800 μl 1M NaOH, and SHP-1 activity was determined by measuring absorbance at 405 nm.

In another test the test system is SHP-1: β-actin complex. The test can be described thus: SHP-1 immunoprecipitation and anti-β-actin immunoblotting in YTS-2DL1 cells incubated with target cells. In kind it is cell-based. The following applies: inhibitory 221-Cw4 cells; 0.5 μM CytD. The protocol:
YTS-2DL1 cells were incubated at 37° C. with 221-Cw4 or Cw7 cells for 5 min, 1 μM of JAS was added, and cells were incubated for 5 min. Cell lysates were subjected to IP of SHP-1 and IB with anti-β-actin or anti-SHP-1 antibodies. Shown data represent at least three independent experiments.
In FIG. 8D, YTS-2DL1 cells were incubated at 37° C. with 221-Cw4 or Cw7 cells for 5 min, 0.5 μM of CytD was added, and the cells were incubated for an additional 5 min. The cells were lysed, and IPs of SHP-1 were subjected to IB using anti-β-actin or anti-SHP-1. Results shown are representative of three independent experiments.
NK cells (primary or YTS) and ‘221’ target cells (either expressing HLA-Cw4, Cw7 or no HLA) were first incubated separately on ice for 10 min, at a ratio of 1:1. The cells were then mixed, centrifuged and kept on ice for 15 min. The cell mixture was then transferred to 37° C., for the indicated period of time, and subsequently lysed with ice-cold lysis buffer.
For analysis of whole cell lysates, 1-10×10^5 cells were used, and for IP experiments, 10-15×10^6 cells were used. Protein A/G plus-Agarose beads (Santa Cruz Biotechnology) were used for IP. […] Immunoreactive proteins were detected with either anti-mouse or anti-rabbit horseradish peroxidase-coupled secondary antibody followed by detection by enhanced chemiluminescence (PerkinElmer).

In test [4] the target is T1, SHP-1 (Homo sapiens, UniProt P29350).
T1 construct: expressed in transfected cells; host or cells: HEK 293T cells, unpurified lysate
T1 sequence (P29350 whole entry): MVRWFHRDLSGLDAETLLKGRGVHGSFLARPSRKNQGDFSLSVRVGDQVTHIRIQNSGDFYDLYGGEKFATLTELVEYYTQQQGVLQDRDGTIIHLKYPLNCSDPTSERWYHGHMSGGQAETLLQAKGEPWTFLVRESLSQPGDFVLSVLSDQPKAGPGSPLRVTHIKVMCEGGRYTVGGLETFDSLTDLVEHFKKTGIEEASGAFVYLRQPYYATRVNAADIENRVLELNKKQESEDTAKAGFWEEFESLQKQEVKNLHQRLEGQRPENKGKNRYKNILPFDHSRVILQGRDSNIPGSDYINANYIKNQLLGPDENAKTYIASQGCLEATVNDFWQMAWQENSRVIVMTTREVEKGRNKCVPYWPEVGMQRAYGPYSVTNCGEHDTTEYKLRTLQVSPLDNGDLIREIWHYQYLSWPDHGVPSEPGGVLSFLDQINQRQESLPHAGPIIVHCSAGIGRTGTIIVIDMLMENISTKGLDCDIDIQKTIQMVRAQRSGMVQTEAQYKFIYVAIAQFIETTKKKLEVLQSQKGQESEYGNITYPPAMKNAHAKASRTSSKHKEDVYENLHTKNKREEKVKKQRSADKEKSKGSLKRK
The test is described as follows: MST analysis for the binding of YFP-SHP-1 and actin-derived peptides. The following applies: for binding to SHP-1: lysates of HEK 293T cells expressing YFP-SHP-1, peptides 400 μM-48 nM.
From the text: Binding curves were generated by the NanoTemper analysis software (MO.Affinity Analysis v2.1.3). The graph summarizes the changes of the fluorescent thermophoresis signals as a function of peptide concentration from at least three independent experiments. Data are means±SD.
YFP-tagged SHP-1 was obtained from cell lysates of Human Embryonic Kidney (HEK) 293T cells, transiently transfected with YFP-SHP-1 by DNA-calcium phosphate co-precipitation, as previously described (Reicher B, et al (2012) Molecular and cellular biology 15: 3153-3163). MST measurements were performed using the protein purification-free method described by Khavrutskii et al. (Khavrutskii L, et al (2013) Journal of visualized experiments: JoVE). Briefly, each peptide (Synpeptide) was initially dissolved in Dimethylformamide (DMF), diluted in DDW (supplemented with 1 mM DTT) to reach stock concentration of 80004, and serially diluted (range from 400 μM to 48.8 nM) in HEPES buffer (50 mM, supplemented with 0.05% Tween-20 and 1 mM DTT) in 200 μL PCR-tubes. Then, YFP-SHP-1-containing cell lysate was added to the serially diluted tubes at a 1:1 ratio and the samples were gently mixed. The samples were allowed to incubate at room temperature for 30 min before being loaded into standard-treated Monolith™ capillaries (NanoTemper). After loading into the instrument (Monolith NT.115, NanoTemper), microthermophoresis was carried out using 40% LED power and 40% MST power. The changes of the fluorescent thermophoresis signals were plotted against the concentration of the serially diluted peptides. KD values were determined using the NanoTemper analysis software (MO.Affinity Analysis v2.1.3).
The SHP-1-β-actin complex formation was also examined using microscale thermophoresis (MST) technology. […] Lysates of HEK 293T cells transiently expressing YFP-SHP-1 were incubated with decreasing concentrations of the different peptides followed by MST analysis.

Test [5] deals with CFP-actin (UniProt P60709). The test can be described thus: FRET between YFP-SHP-1 and CFP-actin in YTS cells at the inhibitory NKIS (221-Cw4 target cells).
Test [6] concerns the target CFP-actin (UniProt P60709). The test can be described thus: FRET between YFP-SHP-1 and CFP-actin in YTS cells at the activating NKIS (221-Cw7 target cells).
The target in test [7] is YFP-SHP-1 (human SHP-1 wt tagged with YFP) (human) (UniProt P29350). The test can be described thus: MST, peptide titrated into lysate of HEK 293T cells expressing YFP-SHP-1.
For test [8] the target is unchanged. The test is described as follows: MST, lysate of 293T cells expressing YFP-SHP-1 with serially diluted peptide.

A word on the IC50: it is the midpoint of a concentration-inhibition curve. What is called Kd is the free concentration of one partner at which half of the binding sites on the other are occupied at equilibrium, for simple one-to-one binding. A low value points to higher affinity. Broadly, the EC50 (read off the curve) is the concentration needed to bring the measured effect to its halfway point.

Where no end group is shown, it is not given here.

For the molecule `Cc1ccc2c(c1)C(=O)C1(O)CCN(c3ccccc3)C1=N2` (stereo not drawn) [Blebbistatin], the IC50 with smooth muscle was 80 µM. For the same molecule, in [1], the inhibition entry is listed as “does not inhibit”.

In the case of `C=C1[C@@H](C)[C@H]2C(Cc3ccccc3)NC(=O)[C@]23[C@H](OC(C)=O)/C=C/[C@@](C)(O)C(=O)[C@@H](C)C/C=C/[C@H]3[C@@H]1O` (stereo partly drawn) [CytD, Cytochalasin D], the “ARF velocity at the LP” value in test [2] was “significant reduction in ARF velocity”. Further, the “relative SHP-1 catalytic activity” value in the test on SHP-1 [3] was 55.4±8.4%. In addition, the “SHP-1 binding to β-actin” value in the test with SHP-1: β-actin complex is on record as “increased binding of SHP-1 to β-actin”.

EYQKASGVSG (irrelevant control peptide): in the test with SHP-1 [4], the “binding to SHP-1” value is given as “no binding was detected”.

Regarding “KEKLCFVALDF (mutant actin peptide) [Y-F mutant, single aa mutant form of the β-actin peptide, tyrosine to phenylalanine substitution]”, the “binding to SHP-1” value in the test with SHP-1 [4] is “no binding was detected”. In the case of “KEKLCYVALDF [WT actin peptide, KEKLCYVALDF]”, binding on SHP-1 [4] was characterised by a dissociation constant (Kd) of 39.5 ± 6.2 µM. For the molecule “YFP-SHP-1 (human SHP-1 wt tagged with YFP) (from UniProt P29350 1-595) (enzyme)”, the FRET efficiency with CFP-actin [5] worked out at 18.9%; with CFP-actin [6], 8.5%. In test [7], KEKLCYVALDF [WT β-actin derived peptide containing an ITIM motif (…)] showed a Kd of 39.5 µM. For the same molecule, the EC50 (read off the curve) in [8] came out at 40 µM.
